What was measured:
Format in all cases: cell-based
[1] = system: Ba/F3 cells expressing del19/T790M/C797S (EGFR-DTC); test: Growth inhibition (GI50) of Ba/F3 cells expressing del19/T790M/C797S (EGFR-DTC), Celltiter glo; details: Mus musculus, BaF3, 72 h
Outline: (§1)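 Viable-cell luminescence (CellTiter-Glo) after 72 h compound exposure at 37 °C, 5% CO2 gave GI50 (μM, 50% growth inhibition). Compounds were 4-fold serial dilutions, 10 points, from a 2 mM stock, 0.5% DMSO, added 4 h after plating EGFR-variant Ba/F3 cells at 100,000 cells/ml.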

[2] = system: Ba/F3 cells expressing L858R/T790M/C797S (EGFR-LTC); test: Growth inhibition (GI50) of Ba/F3 cells expressing L858R/T790M/C797S (EGFR-LTC), Celltiter glo; details: Mus musculus, BaF3, 72 h
Outline: as §1

parental Ba/F3 cell line = test: Growth inhibition (GI50) of the parental Ba/F3 cell line (not introduced with EGFR variants), Celltiter glo; details: Mus musculus, BaF3, 72 h, parental Ba/F3 cells
Outline: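 Parental Ba/F3 cells (100,000 cells/ml) were treated with 10-point, 4-fold compound dilutions (0.5% DMSO; top stock 2 mM) for 72 h at 37 °C, 5% CO2. Viability was read by CellTiter-Glo; GI50 is the concentration (μM) giving 50% growth inhibition.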

[3] = system: Ba/F3 cells expressing EGFR-wt; test: Growth inhibition (GI50) of Ba/F3 cells expressing EGFR-wt, Celltiter glo; details: Mus musculus, BaF3, 72 h
Outline: as §1

[4] = system: Ba/F3 cells expressing del19/T790M (EGFR-DT); test: Growth inhibition (GI50) of Ba/F3 cells expressing del19/T790M (EGFR-DT), Celltiter glo; details: Mus musculus, BaF3, 72 h
Outline: as §1

[5] = system: Ba/F3 cells expressing L858R/T790M (EGFR-LT); test: Growth inhibition (GI50) of Ba/F3 cells expressing L858R/T790M (EGFR-LT), Celltiter glo; details: Mus musculus, BaF3, 72 h
Outline: as §1

| SMILES | GI50 [1] [nM] | GI50 [2] [nM] | GI50 [3] [nM] | GI50 [4] [nM] | GI50 [5] [nM] | GI50 (parental Ba/F3 cell line) [nM] |
| --- | --- | --- | --- | --- | --- | --- |
| CCc1cc(Nc2ncc(Cl)c(Nc3ccc4nccnc4c3P(C)(C)=O)n2)c(OC)cc1N1CCC(N2CCN(C)CC2)CC1 [Example 190, (6-((5-chloro-2-((5-ethyl-2-methoxy-4-(4-(4-methylpiperazin-1-yl)piperidin-1-yl)phenyl)amino)pyrimidin-4-yl)amino)quinoxalin-5-yl)dimethylphosphine oxide] | 25 to 100 | 25 to 100 | 100 to 500 | 1 to 25 | 1 to 25 | 100 to 500 |
| Cc1cc(Nc2ncc(Cl)c(Nc3cc(Cl)ccc3NS(C)(=O)=O)n2)c(Cl)cc1N1CCC(N2CCCN(C)CC2)CC1 [Example 162, N-(4-chloro-2-((5-chloro-2-((2-chloro-5-methyl-4-(4-(4-methyl-1,4-diazepan-1-yl)piperidin-1-yl)phenyl)amino)pyrimidin-4-yl)amino)phenyl)methanesulfonamide] | 100 to 500 | 2000 to 10000 | 500 to 2000 | 2000 to 10000 | 2000 to 10000 | 2000 to 10000 |
| COc1cc(N2CCC(N3CCC(N(C)C)C3)CC2)c(C)cc1Nc1ncc(Br)c(Nc2cc3c(cc2N(C)S(C)(=O)=O)CCO3)n1 (stereo not drawn) [Example 262, N-(6-((5-bromo-2-((4-(4-(3-(dimethylamino)pyrrolidin-1-yl)piperidin-1-yl)-2-methoxy-5-methylphenyl)amino)pyrimidin-4-yl)amino)-2,3-dihydrobenzofuran-5-yl)-N-methylmethanesulfonamide] | 25 to 100 | 25 to 100 | 100 to 500 | 1 to 25 | 25 to 100 | 25 to 100 |
| COc1cc(N2CCC(N3CCN(C)CC3)CC2)c(Cl)cc1Nc1ncc(Br)c(Nc2ccccc2N=S(C)(C)=O)n1 [Example 143] | 100 to 500 | 100 to 500 | 100 to 500 | 500 to 2000 | 500 to 2000 | 100 to 500 |
| COc1nc(N2CCC(N(C)C)C2)ccc1Nc1ncc(Cl)c(Nc2ccc(F)cc2NS(C)(=O)=O)n1 (stereo not drawn) [Example 23, N-(2-((5-chloro-2-((6-(3-(dimethylamino)pyrrolidin-1-yl)-2-methoxypyridin-3-yl)amino)pyrimidin-4-yl)amino)-5-fluorophenyl)methanesulfonamide] | 100 to 500 | 100 to 500 | 100 to 500 | 100 to 500 | 500 to 2000 | 100 to 500 |
| COc1cc(N2CCC(N3CCC(N(C)C)C3)CC2)c(C)cc1Nc1ncc(Br)c(Nc2cc3c(cc2NS(C)(=O)=O)CCO3)n1 (stereo not drawn) [Example 211, N-(6-((5-bromo-2-((4-(4-(3-(dimethylamino)pyrrolidin-1-yl)piperidin-1-yl)-2-methoxy-5-methylphenyl)amino)pyrimidin-4-yl)amino)-2,3-dihydrobenzofuran-5-yl)methanesulfonamide] | 25 to 100 | 1 to 25 | 100 to 500 | 1 to 25 | 25 to 100 | 2000 to 10000 |

Second part, led by results:

| GI50 [1] [nM] | GI50 [2] [nM] | GI50 [3] [nM] | GI50 [4] [nM] | GI50 [5] [nM] | SMILES | GI50 (parental Ba/F3 cell line) [nM] |
| --- | --- | --- | --- | --- | --- | --- |
| 1 to 25 | 1 to 25 | 25 to 100 | 1 to 25 | 1 to 25 | COc1cc(N2CCC(N3CCN(C)CC3)CC2)c(Cl)cc1Nc1ncc(Cl)c(Nc2cc(Cl)ccc2N(C)S(C)(=O)=O)n1 [Example 170, N-(4-chloro-2-((5-chloro-2-((5-chloro-2-methoxy-4-(4-(4-methylpiperazin-1-yl)piperidin-1-yl)phenyl)amino)pyrimidin-4-yl)amino)phenyl)-N-methylmethanesulfonamide] | 100 to 500 |
| 1 to 25 | 25 to 100 | 500 to 2000 | 25 to 100 | 25 to 100 | COc1cc(N2CCC(N3CCN(C(F)(F)F)CC3)CC2)c(C)cc1Nc1ncc(Cl)c(Nc2cc3c(cc2NS(C)(=O)=O)CCO3)n1 [Example 225, N-(6-((5-chloro-2-((2-methoxy-5-methyl-4-(4-(4-(trifluoromethyl)piperazin-1-yl)piperidin-1-yl)phenyl)amino)pyrimidin-4-yl)amino)-2,3-dihydrobenzofuran-5-yl)methanesulfonamide] | 2000 to 10000 |

From patent US20240228458A1, “PYRIMIDINE DERIVATIVE HAVING PROTEIN KINASE INHIBITORY ACTIVITY, AND THERAPEUTIC PHARMACEUTICAL COMPOSITION COMPRISING SAME” (THERAPEX CO., LTD., priority 2021, published 2024)
